What was measured:
[1] = test system: MCF7; experiment: Anticancer activity against human MCF7 cells by MTT assay; format: functional, cell-based
[2] = test system: A549; experiment: Anticancer activity against human A549 cells by MTT assay; format: functional, cell-based
[3] = test system: HeLa; experiment: Anticancer activity against human HeLa cells by MTT assay; format: functional, cell-based
[4] = test system: HepG2; experiment: Anticancer activity against human HepG2 cells by MTT assay; format: functional, cell-based
[5] = target: Phosphatidylinositol 4,5-bisphosphate 3-kinase catalytic subunit beta isoform (Homo sapiens, UniProt P42338); experiment: Inhibition of human PI3Kbeta
[6] = target: Phosphatidylinositol 4,5-bisphosphate 3-kinase catalytic subunit alpha isoform (Homo sapiens, UniProt P42336); experiment: Inhibition of human PI3Kalpha
[7] = target: Phosphatidylinositol 4,5-bisphosphate 3-kinase catalytic subunit gamma isoform (Homo sapiens, UniProt P48736); experiment: Inhibition of human PI3Kgamma
[8] = test system: A549; experiment: Induction of apoptosis in human A549 cells assessed as late necrotic cells at 16 uM after 48 hrs using annexin V and propidium iodide staining by flow cytometry (reference value: 6.00 %); format: functional
[9] = test system: A549; experiment: Induction of apoptosis in human A549 cells assessed as late apoptotic cells at 16 uM after 48 hrs using annexin V and propidium iodide staining by flow cytometry (reference value: 9.79 %); format: functional
[10] = test system: A549; experiment: Induction of apoptosis in human A549 cells assessed as apoptotic cells at 16 uM after 48 hrs using annexin V and propidium iodide staining by flow cytometry (reference value: 5.37 %); format: functional
[11] = test system: A549; experiment: Induction of apoptosis in human A549 cells assessed as viable cells at 16 uM after 48 hrs using annexin V and propidium iodide staining by flow cytometry (reference value: 78.8 %); format: functional; conditions: A549, 48 h, read-out: Activity
[12] = test system: A549; experiment: Induction of apoptosis in human A549 cells assessed as late necrotic cells at 4 uM after 48 hrs using annexin V and propidium iodide staining by flow cytometry (reference value: 6.00 %); format: functional
[13] = test system: A549; experiment: Induction of apoptosis in human A549 cells assessed as late apoptotic cells at 4 uM after 48 hrs using annexin V and propidium iodide staining by flow cytometry (reference value: 9.79 %); format: functional
[14] = test system: A549; experiment: Induction of apoptosis in human A549 cells assessed as apoptotic cells at 4 uM after 48 hrs using annexin V and propidium iodide staining by flow cytometry (reference value: 5.37 %); format: functional
[15] = test system: A549; experiment: Induction of apoptosis in human A549 cells assessed as viable cells at 4 uM after 48 hrs using annexin V and propidium iodide staining by flow cytometry (reference value: 78.8 %); format: functional; conditions: A549, 48 h, read-out: Activity
[16] = test system: A549; experiment: Induction of apoptosis in human A549 cells assessed as late necrotic cells at 1 uM after 48 hrs using annexin V and propidium iodide staining by flow cytometry (reference value: 6.00 %); format: functional
[17] = test system: A549; experiment: Induction of apoptosis in human A549 cells assessed as late apoptotic cells at 1 uM after 48 hrs using annexin V and propidium iodide staining by flow cytometry (reference value: 9.79 %); format: functional
[18] = test system: A549; experiment: Induction of apoptosis in human A549 cells assessed as apoptotic cells at 1 uM after 48 hrs using annexin V and propidium iodide staining by flow cytometry (reference value: 5.37 %); format: functional
[19] = test system: A549; experiment: Induction of apoptosis in human A549 cells assessed as viable cells at 1 uM after 48 hrs using annexin V and propidium iodide staining by flow cytometry (reference value: 78.8 %); format: functional; conditions: A549, 48 h, read-out: Activity
[20] = target: Tyrosine-protein kinase JAK2 (Homo sapiens, UniProt O60674); experiment: Inhibition of JAK2 (unknown origin)
[21] = target: Cyclin-dependent kinase 2 (Homo sapiens, UniProt P24941); experiment: Inhibition of CDK2 (unknown origin)
[22] = target: Epidermal growth factor receptor (Homo sapiens, UniProt P00533); experiment: Inhibition of EGFR (unknown origin)

Chain of Phosphatidylinositol 4,5-bisphosphate 3-kinase catalytic subunit alpha isoform (P42336 whole entry, canonical isoform): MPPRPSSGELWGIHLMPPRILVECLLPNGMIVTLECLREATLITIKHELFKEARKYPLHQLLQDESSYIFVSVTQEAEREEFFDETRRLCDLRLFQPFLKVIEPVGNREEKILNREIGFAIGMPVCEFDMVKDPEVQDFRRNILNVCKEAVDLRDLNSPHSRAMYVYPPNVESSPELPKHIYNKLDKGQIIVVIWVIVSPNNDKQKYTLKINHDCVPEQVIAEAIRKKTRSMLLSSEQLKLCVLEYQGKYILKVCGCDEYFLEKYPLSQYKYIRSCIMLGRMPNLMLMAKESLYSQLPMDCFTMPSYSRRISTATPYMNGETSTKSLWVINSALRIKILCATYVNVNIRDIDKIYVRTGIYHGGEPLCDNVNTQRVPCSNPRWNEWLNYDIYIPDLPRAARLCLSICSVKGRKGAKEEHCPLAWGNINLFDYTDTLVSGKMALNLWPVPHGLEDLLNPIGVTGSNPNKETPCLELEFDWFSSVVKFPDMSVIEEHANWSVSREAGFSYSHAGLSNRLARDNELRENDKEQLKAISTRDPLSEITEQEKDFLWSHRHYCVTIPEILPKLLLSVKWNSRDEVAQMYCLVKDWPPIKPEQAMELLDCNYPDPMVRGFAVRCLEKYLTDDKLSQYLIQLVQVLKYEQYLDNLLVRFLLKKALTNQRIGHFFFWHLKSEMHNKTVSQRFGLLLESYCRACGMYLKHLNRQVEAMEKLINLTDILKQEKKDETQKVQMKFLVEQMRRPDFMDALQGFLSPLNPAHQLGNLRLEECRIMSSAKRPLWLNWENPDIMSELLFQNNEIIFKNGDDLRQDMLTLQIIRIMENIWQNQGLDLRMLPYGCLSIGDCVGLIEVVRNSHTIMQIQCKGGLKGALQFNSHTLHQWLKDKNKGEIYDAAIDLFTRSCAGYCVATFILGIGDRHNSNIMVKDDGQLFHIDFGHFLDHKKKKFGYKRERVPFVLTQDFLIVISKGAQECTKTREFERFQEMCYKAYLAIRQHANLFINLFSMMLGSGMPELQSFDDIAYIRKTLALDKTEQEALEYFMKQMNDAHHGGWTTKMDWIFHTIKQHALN
Chain of Phosphatidylinositol 4,5-bisphosphate 3-kinase catalytic subunit gamma isoform (P48736 whole entry, canonical isoform): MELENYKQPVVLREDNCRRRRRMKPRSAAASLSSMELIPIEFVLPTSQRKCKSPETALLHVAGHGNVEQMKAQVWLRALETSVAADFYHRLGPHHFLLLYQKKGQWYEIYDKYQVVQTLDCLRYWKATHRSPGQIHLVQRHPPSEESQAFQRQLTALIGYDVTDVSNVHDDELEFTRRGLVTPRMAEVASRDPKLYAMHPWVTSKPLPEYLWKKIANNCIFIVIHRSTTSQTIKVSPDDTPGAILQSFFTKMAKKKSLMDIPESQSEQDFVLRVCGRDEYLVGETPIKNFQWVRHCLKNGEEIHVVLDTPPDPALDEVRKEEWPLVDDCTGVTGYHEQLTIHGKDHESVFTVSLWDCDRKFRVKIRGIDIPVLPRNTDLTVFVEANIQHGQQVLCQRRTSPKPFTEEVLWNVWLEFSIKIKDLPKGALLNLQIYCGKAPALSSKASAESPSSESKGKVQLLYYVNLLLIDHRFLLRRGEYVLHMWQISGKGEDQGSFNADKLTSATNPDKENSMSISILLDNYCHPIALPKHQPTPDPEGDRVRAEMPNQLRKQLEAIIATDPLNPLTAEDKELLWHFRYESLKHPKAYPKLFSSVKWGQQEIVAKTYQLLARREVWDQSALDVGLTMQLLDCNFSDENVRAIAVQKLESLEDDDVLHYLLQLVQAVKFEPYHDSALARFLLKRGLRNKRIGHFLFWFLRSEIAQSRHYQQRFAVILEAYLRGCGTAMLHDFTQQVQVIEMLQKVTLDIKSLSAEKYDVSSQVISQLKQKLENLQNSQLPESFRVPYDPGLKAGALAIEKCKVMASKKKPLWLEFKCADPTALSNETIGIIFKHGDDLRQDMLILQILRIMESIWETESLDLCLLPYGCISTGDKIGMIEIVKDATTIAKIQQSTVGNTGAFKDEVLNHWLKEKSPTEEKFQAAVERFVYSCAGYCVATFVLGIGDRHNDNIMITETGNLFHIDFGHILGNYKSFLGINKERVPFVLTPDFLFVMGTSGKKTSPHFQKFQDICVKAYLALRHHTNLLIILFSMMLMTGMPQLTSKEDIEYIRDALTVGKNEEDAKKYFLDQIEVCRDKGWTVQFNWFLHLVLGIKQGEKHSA
Chain of Phosphatidylinositol 4,5-bisphosphate 3-kinase catalytic subunit beta isoform (P42338 whole entry, canonical isoform): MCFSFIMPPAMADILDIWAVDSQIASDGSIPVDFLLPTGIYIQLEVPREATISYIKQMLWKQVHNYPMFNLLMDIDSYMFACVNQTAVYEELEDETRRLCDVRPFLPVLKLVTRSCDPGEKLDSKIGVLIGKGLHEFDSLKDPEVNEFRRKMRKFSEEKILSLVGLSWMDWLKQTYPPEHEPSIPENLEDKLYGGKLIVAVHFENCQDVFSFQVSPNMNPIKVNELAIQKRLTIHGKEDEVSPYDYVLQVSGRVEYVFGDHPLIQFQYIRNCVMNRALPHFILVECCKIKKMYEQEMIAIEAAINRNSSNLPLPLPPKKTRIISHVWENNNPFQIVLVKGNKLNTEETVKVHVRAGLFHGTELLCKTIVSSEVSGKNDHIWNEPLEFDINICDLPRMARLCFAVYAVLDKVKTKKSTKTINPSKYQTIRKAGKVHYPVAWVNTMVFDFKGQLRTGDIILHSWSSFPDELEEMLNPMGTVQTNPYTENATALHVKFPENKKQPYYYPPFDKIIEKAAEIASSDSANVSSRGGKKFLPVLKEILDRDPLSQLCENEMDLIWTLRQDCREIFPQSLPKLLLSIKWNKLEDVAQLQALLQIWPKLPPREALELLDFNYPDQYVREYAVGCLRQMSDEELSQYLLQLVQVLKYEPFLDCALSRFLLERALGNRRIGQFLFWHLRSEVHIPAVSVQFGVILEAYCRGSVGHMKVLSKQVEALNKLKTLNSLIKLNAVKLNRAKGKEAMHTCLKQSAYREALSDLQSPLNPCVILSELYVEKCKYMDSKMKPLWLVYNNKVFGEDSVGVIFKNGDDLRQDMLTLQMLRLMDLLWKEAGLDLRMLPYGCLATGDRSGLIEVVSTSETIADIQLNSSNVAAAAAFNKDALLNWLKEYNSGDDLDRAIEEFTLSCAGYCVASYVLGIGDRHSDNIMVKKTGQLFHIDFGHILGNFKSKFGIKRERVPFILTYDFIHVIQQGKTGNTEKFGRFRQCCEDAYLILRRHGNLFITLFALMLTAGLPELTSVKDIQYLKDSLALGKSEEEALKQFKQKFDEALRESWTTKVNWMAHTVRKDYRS
Chain of Tyrosine-protein kinase JAK2 (O60674 whole entry): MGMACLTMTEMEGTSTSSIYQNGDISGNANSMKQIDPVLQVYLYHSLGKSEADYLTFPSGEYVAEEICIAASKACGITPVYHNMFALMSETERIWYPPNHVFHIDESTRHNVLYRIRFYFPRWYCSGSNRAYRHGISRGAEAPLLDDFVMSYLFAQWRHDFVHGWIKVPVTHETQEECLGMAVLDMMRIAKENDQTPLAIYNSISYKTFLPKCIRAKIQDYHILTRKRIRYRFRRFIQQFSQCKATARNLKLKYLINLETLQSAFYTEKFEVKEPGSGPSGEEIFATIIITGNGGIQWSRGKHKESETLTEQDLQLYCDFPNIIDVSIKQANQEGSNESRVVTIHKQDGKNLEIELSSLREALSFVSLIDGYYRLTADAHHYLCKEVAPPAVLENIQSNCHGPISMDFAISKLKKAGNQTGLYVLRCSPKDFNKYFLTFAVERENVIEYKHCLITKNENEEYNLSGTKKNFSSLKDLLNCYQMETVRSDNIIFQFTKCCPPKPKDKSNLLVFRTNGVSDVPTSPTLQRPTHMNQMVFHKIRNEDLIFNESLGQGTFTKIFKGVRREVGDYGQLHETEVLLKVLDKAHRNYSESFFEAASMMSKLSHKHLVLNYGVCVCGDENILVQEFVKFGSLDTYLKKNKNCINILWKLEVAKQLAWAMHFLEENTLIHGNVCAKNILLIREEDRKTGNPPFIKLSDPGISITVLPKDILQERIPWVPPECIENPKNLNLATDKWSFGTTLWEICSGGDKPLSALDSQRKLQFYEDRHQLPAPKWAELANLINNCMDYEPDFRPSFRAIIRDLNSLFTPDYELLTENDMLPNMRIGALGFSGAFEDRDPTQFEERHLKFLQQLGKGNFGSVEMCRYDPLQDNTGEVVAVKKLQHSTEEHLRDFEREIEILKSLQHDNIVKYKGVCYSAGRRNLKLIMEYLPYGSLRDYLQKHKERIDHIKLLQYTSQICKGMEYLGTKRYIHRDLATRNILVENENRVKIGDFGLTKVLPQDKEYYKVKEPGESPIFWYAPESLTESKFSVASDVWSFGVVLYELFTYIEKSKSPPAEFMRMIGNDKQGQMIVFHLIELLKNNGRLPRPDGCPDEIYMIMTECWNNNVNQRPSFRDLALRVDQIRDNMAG

IC50 [1]	IC50 [2]	IC50 [3]	IC50 [4]	IC50 [5]	IC50 [6]	IC50 ([7]; read-out: IC50)	IC50 ([7]; read-out: pIC50 (converted))	SMILES	further results
1.03 µM	0.49 µM	0.15 µM	0.82 µM					Nc1nc(N)c2nc(-c3cccc(O)c3)cnc2n1	
249 µM	18.4 µM	7.66 µM	13.2 µM	0.851 µM	0.813 µM	0.274 µM	0.274 µM	Cc1cccc(Nc2nccc(-c3ccc(Cl)cc3Cl)n2)c1	
192 µM	32.2 µM	76.4 µM	96.9 µM	0.893 µM	0.851 µM	0.278 µM	0.278 µM	COc1cccc(Nc2nccc(-c3ccc(Cl)cc3Cl)n2)c1	
192 µM	119 µM	168 µM	99.3 µM	0.938 µM	0.953 µM	0.386 µM	0.386 µM	O=[N+]([O-])c1ccc(Nc2nccc(-c3ccc(Cl)cc3Cl)n2)cc1	
3.18 µM	11.6 µM	1.56 µM	8.08 µM	0.799 µM	0.772 µM	0.268 µM	0.268 µM	Clc1ccc(Nc2nccc(-c3ccc(Cl)cc3Cl)n2)c(Cl)c1	
3.45 µM	6.53 µM	0.55 µM	13.9 µM	0.729 µM	0.615 µM	0.195 µM	0.195 µM	COc1ccc(-c2ccnc(Nc3cccc(OC)c3)n2)cc1	
0.81 µM	20.9 µM	0.31 µM	4.5 µM	0.603 µM	0.552 µM	0.167 µM	0.167 µM	COc1ccc(-c2ccnc(Nc3ccc(Cl)cc3)n2)cc1	
0.77 µM	2.73 µM	0.98 µM	1.04 µM	0.537 µM	0.527 µM	0.143 µM	0.143 µM	COc1ccc(-c2ccnc(Nc3ccc([N+](=O)[O-])cc3)n2)cc1	
4.17 µM	7.33 µM	23 µM	0.19 µM	0.839 µM	0.738 µM	0.235 µM	0.235 µM	COc1ccc(-c2ccnc(Nc3ccc(Cl)cc3Cl)n2)cc1	
> 1000 µM	164 µM	91.5 µM	344 µM	> 1 µM	> 1 µM	0.371 µM	0.371 µM	Cc1ccc(-c2ccnc(Nc3ccc(Cl)cc3Cl)n2)cc1	
412 µM	35.9 µM	145 µM	128 µM	> 1 µM	0.88 µM	0.334 µM	0.334 µM	COc1cccc(Nc2nccc(-c3ccc(F)cc3)n2)c1	
0.4 µM	84 µM	3.51 µM	7.95 µM	0.863 µM	0.679 µM	0.247 µM	0.247 µM	O=[N+]([O-])c1ccc(Nc2nccc(-c3ccc(F)cc3)n2)cc1	
3.15 µM	0.36 µM	0.29 µM	0.09 µM	0.373 µM	0.341 µM	≤ 0.065 µM		COc1cc(Nc2nccc(-c3ccc(Cl)cc3)n2)cc(OC)c1OC	Activity [8]: 2.19%; Activity [9]: 39.4%; Activity [10]: 13.5%; viability at 16 µM [11]: 44.9%; Activity [12]: 4.62%; Activity [13]: 32.8%; Activity [14]: 6.53%; viability at 4 µM [15]: 56.1%; Activity [16]: 3.66%; Activity [17]: 25%; Activity [18]: 8.47%; viability at 1 µM [19]: 62.9%; IC50 [20]: 21.5 µM; IC50 [21]: 18.8 µM; IC50 [22]: 2.15 µM
210 µM	63.2 µM	71 µM	74.6 µM	> 1 µM	0.894 µM	0.342 µM	0.342 µM	Cc1cccc(Nc2nccc(-c3ccc(Br)cc3)n2)c1	
278 µM	82.7 µM	153 µM	148 µM	0.977 µM	> 1 µM	0.357 µM	0.357 µM	COc1cccc(Nc2nccc(-c3ccc(Br)cc3)n2)c1	
111 µM	3.71 µM	11.5 µM	7.03 µM	0.874 µM	0.792 µM	0.313 µM	0.313 µM	CC(C)c1ccccc1Nc1nccc(-c2ccc(Br)cc2)n1	
4.18 µM	6.11 µM	36.7 µM	47.5 µM	0.946 µM	0.914 µM	0.302 µM	0.302 µM	Clc1ccc(Nc2nccc(-c3ccc(Br)cc3)n2)cc1	
681 µM	76 µM	25.7 µM	43 µM	0.961 µM	0.946 µM	0.265 µM	0.265 µM	O=[N+]([O-])c1ccc(Nc2nccc(-c3ccc(Br)cc3)n2)cc1	
2.49 µM	3.78 µM	1.08 µM	0.72 µM	0.673 µM	0.591 µM	0.231 µM	0.231 µM	Clc1ccc(Nc2nccc(-c3ccc(Br)cc3)n2)c(Cl)c1	
21 µM	6 µM	4.97 µM	3.37 µM	0.741 µM	0.625 µM	0.217 µM	0.217 µM	COc1cccc(Nc2nccc(-c3ccc(Cl)c(Cl)c3)n2)c1	
3.51 µM	0.72 µM	1.84 µM	0.5 µM	0.573 µM	0.503 µM	0.154 µM	0.154 µM	O=[N+]([O-])c1ccc(Nc2nccc(-c3ccc(Cl)c(Cl)c3)n2)cc1	
45.6 µM	26 µM	23 µM	28.4 µM	0.926 µM	0.836 µM	0.25 µM	0.25 µM	Clc1ccc(Nc2nccc(-c3ccc(Cl)c(Cl)c3)n2)c(Cl)c1	

From ChEMBL document CHEMBL3132747, “Design and synthesis of a novel series of N,4-diphenylpyrimidin-2-amine derivatives as potent and selective PI3K inhibitors” (Medchemcomm, 2014)
